Consider 1 compound from US12673028B2, “Therapeutic potential of cellulose-cyclodextrin-curcumin nanocrystals in the treatment of peripheral neuropathies” (UNIVERSITÉ DE LIMOGES, priority 2019, dated 2026).

The conditions of data set [1]: rats; cited from earlier work.
The nature of data set [2]: Bioavailability of curcumin in plasma. The data set is classed as in vivo. The following applies: rat, 50 mg/kg.
The test system of another data set is wild type Schwann cells. Put plainly: In vitro H2O2-induced oxidative stress in Schwann cells. The data set is classed as cell-based, rat. The following applies: H2O2 0.1 mM. The method, then: Schwann cells (SCs) were isolated from sciatic nerves of wild type (WT) male rats as well as 8-week-old CMT1A rats. SCs were cultured in SC culture medium (described in Caillaud et al., 2018): DMEM D-valine+2 mM glutamine (Gibco)+10% fetal calf serum (Gibco)+1% N2 supplement (Gibco)+20 μg/mL bovine pituitary extract+5 μM forskolin (Gibco)+100 U/mL penicillin/streptomycin (Gibco)+250 μg/mL fungizone (Gibco). SCs were identified using immunofluorescent labeling for S-100 protein.
To induce oxidative stress, SCs were subjected to H2O2 (0.1 mM) treatment for 8 hours. Total ROS and mitochondrial superoxide ions were assessed using the CellROX-Green reagent (Life Technologies GmbH) and the mitochondrial superoxide indicator MitoSOX Red (Life Technologies GmbH), respectively, according to the manufacturer's recommendations.

On to `COc1cc(/C=C/C(=O)CC(=O)/C=C/c2ccc(O)c(OC)c2)ccc1O` [Curcumin, curcumin], for which the Oral bioavailability entry in data set [1] was “approximately 1%”. In data set [2], the concentration at 0 h was 0 ng/mL, the concentration at 1 h stood at 24.9 ng/mL, the concentration at 2 h was found to be 4.3 ng/mL and the concentration at 8 h amounted to 0 ng/mL. Moreover, the concentration at 12 h in data set [2] was 0 ng/mL. Besides, the “Mitochondrial membrane potential Δψm (Rho123)” value with wild type Schwann cells (0.001 μM and 0.01 μM) was “did not reduce the H2O2-induced decrease in Δψm”. Besides, in the data set on wild type Schwann cells (1 μM, 8 h pretreatment), the “H2O2-induced mitochondrial ROS (MitoSOX)” value is on record as “restored values close to those of the control group” and the “H2O2-induced total ROS (CellROX)” value is reported as “reduced H2O2-induced total ROS”. In the data set with wild type Schwann cells (0.001, 0.01 and 10 μM, 8 h pretreatment), the “H2O2-induced total ROS (CellROX)” value is given as “had no antioxidant effect”.
